In article PMC7209772 (Molecular microbiology, 2019):

Biological target: T1, GacB (MxGacB, MXAN_2643), Hypr GGDEF enzyme (Myxococcus xanthus, UniProt Q1D911)
T1 sequence (Q1D911 1-364): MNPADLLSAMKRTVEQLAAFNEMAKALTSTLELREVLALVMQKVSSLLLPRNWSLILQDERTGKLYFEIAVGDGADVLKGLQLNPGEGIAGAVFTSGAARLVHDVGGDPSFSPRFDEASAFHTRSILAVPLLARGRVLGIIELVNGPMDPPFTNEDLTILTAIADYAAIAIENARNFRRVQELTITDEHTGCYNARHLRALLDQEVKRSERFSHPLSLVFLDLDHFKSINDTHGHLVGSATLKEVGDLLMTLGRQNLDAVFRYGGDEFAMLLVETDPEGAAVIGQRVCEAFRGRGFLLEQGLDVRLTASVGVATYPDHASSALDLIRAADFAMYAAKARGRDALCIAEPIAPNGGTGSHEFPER
Test: LC-MS inhibition assay
Format: biochemical

IC50: 17.8 µM
Compound: Nc1nc2c(ncn2[C@@H]2O[C@@H]3CO[P@](=O)(O)O[C@H]4[C@@H](O)[C@H](n5cnc6c(=O)[nH]c(N)nc65)O[C@@H]4CO[P@](=O)(O)O[C@H]3[C@H]2O)c(=O)[nH]1 [cdiG, cyclic di-GMP]
